The test has as its target GLP1R (Homo sapiens, UniProt P43220). In words: GLP1R cAMP HTRF assay, HEK293/GLP-1R/CRE/Luc (HEK293T cells). The class given is cell-based. The note with it: read-out: EC50. Here is the method: GLP-1R-mediated agonist activity was determined with a cell-based functional assay utilizing an HTRF (Homogeneous Time-Resolved Fluorescence) cAMP detection kit (cAMP Dynamic 2 Assay Kit; CisBio cat #62AM4PEC) that measures cAMP levels in the cell. The method is a competitive immunoassay between native cAMP produced by the cells and exogenous cAMP labeled with the dye d2. The tracer binding is visualized by a mAb anti-cAMP labeled with Cryptate. The specific signal (i.e., energy transfer) is inversely proportional to the concentration of cAMP in either standard or experimental sample.
A cell line stably expressing the receptor was isolated.
Varying concentrations of each compound to be tested (in DMSO) were diluted in DMSO to obtain 200× compound working solution first and then 50 nl compounds were added to a white 384-well assay plate (Greiner 784075) with ECHO. The final DMSO concentration was 0.5%. The compound concentration range may be adjusted at any time.
Cells were removed from cryopreservation, re-suspended in 5 mL of Dulbecco's Phosphate Buffered Saline (DPBS-Sigma Cat # D8537) and centrifuged at 900 g for 5 min at 22° C. The cell pellet was then re-suspended in 1 mL of assay buffer [DPBS with 500 μM IBMX (Sigma #15879) and 0.1% BSA (Sigma # A1933). IBMX and BSA were freshly added on the day of assay]. A 10 μL sample of the cell suspension was counted on an Invitrogen Countess II to determine cell viability and cell count per mL. The remaining cell suspension was then adjusted with assay buffer to deliver 1000 viable cells per well using a Matrix Combi Multidrop reagent dispenser. 10 μL cell suspensions were added to each well of the assay plate which already contains compound. The plate was sealed and incubated at 37° C. with 5% CO2 for 30 minutes.
Following the 30 minute incubation, 5 μL of labeled d2 cAMP and 5 μL of anti-cAMP antibody (both diluted 1:20 in cell lysis buffer; as described in the manufacturer's assay protocol) were added to each well of the assay plate. The plates w ere then incubated at room temperature and after 60 minutes, changes in the HTRF signal were read with an Envision multi-label plate reader using excitation of 330 nm and emissions of 615 and 665 nm. Raw data were converted to nM cAMP by interpolation from a cAMP standard curve (as described in the manufacturer's assay protocol) and the percent effect was determined relative to a saturating concentration of the full agonist GLP-17-37 (10 nM) included on each plate. EC50 determinations were made from agonist dose-response curves analyzed with a curve fitting program using a 4-parameter logistic dose response equation.
3) Anti-cAMP antibody-cryptate working solution preparation • c) The lyophilisate was reconstituted with appropriate amount of distilled water according to manufacturer's instruction to make working stock which can be aliquoted and frozen (−20° C.). • d) The working stock solution was diluted 1:20 in the conjugate and lysis buffer before use. Procedures Procedures for Cell Suspension Preparation • 1. Frozen cells were thawed very briefly in a 37° C. water bath under sterile conditions until just before ice completely melt (for about 1 minute) with a continuous agitation. Caution was taken because a longer incubation could result in cell death. • 2. DMSO was removed from the media by carefully transferring thawed cells to a sterile 15/50 mL tube, filling a tube with 10-50 mL of complete media pre-warmed to 37° C., and allowing the cells to sit 5 min before centrifuging at 900 rpm for 5 minutes for cell collection. • 3. The cells were resuspended with assay buffer. • 4. For stable GLP1-R assay, the optimized cell density is 1000 cells/well. Caution was taken because cell density optimization was crucial and needed to be optimized in different laboratories. The level of cAMP produced by the cells must fall within the linear range of the standard curve.
(In general: In TR-FRET formats the signal depends on donor and acceptor labels being close together.)

GLP1R, sequence (P43220 24-463): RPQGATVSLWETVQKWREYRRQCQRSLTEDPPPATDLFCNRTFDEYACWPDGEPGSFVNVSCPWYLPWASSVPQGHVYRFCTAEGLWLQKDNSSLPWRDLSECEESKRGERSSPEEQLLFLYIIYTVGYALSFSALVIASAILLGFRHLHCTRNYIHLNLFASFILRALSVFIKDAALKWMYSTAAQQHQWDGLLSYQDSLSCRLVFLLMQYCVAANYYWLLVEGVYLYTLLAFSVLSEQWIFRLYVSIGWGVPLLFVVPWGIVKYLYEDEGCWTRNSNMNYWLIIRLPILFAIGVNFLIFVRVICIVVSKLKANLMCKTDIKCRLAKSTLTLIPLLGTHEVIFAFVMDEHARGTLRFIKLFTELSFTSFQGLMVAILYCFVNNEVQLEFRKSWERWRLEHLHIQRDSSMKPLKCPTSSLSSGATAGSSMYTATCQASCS

For orientation: EC50 means the concentration needed to bring the measured effect to its halfway point. In the case of `N#Cc1ccc(COc2cccc(N3CCN(Cc4nc5ccc(C(=O)O)nc5n4C[C@@H]4CCO4)CC3=O)n2)c(F)c1` [Compound 234, (S)-2-((4-(6-(4-cyano-2-fluorobenzyloxy)pyridin-2-yl)-3-oxopiperazin-1-yl)methyl)-3-(oxetan-2-ylmethyl)-3H-imidazo[4,5-b]pyridine-5-carboxylic acid], the EC50 was not above 150 nM.
As to `O=C(O)c1ccc2nc(CN3CC=C(c4cccc(OCc5cnccn5)n4)CC3)n(C[C@@H]3CCO3)c2c1` [Compound 165, (S)-1-(oxetan-2-ylmethyl)-2-((6-(pyrazin-2-ylmethoxy)-3′,6′-dihydro-[2,4′-bipyridin]-1′(2′H)-yl)methyl)-1H-benzo[d]imidazole-6-carboxylic acid], the 50% effective concentration (EC50) was not above 1000 nM.
On to `CCn1cncc1Cn1c(CN2CC=C(c3cccc(OCc4ccc(C#N)cc4F)n3)CC2)nc2ccc(C(=O)O)cc21` [Compound 182, 2-((6-((4-cyano-2-fluorobenzyl)oxy)-3′,6′-dihydro-[2,4′-bipyridin]-1′(2′H)-yl)methyl)-1-((1-ethyl-1H-imidazol-5-yl)methyl)-1H-benzo[d]imidazole-6-carboxylic acid], for which the EC50 was not above 15 nM.
`N#Cc1ccc(COc2ccnc(C3=CCN(Cc4nc5ccc(C(=O)O)cc5n4C[C@@H]4CCO4)CC3)n2)c(F)c1` [Compound 176, (S)-2-((4-(4-((4-cyano-2-fluorobenzyl)oxy)pyrimidin-2-yl)-3,6-dihydropyridin-1(2H)-yl)methyl)-1-(oxetan-2-ylmethyl)-1H-benzo[d]imidazole-6-carboxylic add]: the EC50 is not above 15 nM.
For the molecule `O=C(O)c1ccc2nc(CN3CC(=O)N(c4cccc(OCc5ccc(Cl)cc5F)n4)CC3=O)n(C[C@@H]3CCO3)c2c1` [Compound 168, (S)-2-((4-(6-(4-chloro-2-fluorobenzyloxy)pyridin-2-yl)-2,5-dioxopiperazin-1-yl)methyl)-1-(oxetan-2-ylmethyl)-1H-benzo[d]imidazole-6-carboxylic acid], the EC50 was not above 15 nM.
To `O=C(O)c1ccc2nc(CN3CC=C(c4cccc(OCc5cc(F)cc(F)c5)n4)CC3)n(C[C@@H]3CCO3)c2c1` [Compound 142, (S)-2-((6-((3,5-difluorobenzyl)oxy)-3′,6′-dihydro-[2,4′-bipyridin]-1′(2′H)-yl)methyl)-1-(oxetan-2-ylmethyl)-1H-benzo[d]imidazole-6-carboxylic acid] belongs not above 150 nM; to `O=C(O)c1ccc2nc(CN3CC=C(c4cccc(OCc5ncc(Cl)cn5)n4)CC3)n(C[C@@H]3CCO3)c2c1` [Compound 164, (S)-2-((6-((5-chloropyrimidin-2-yl)methoxy)-3′,6′-dihydro-[2H′-bipyridin]-1′(2′H)-yl)methyl)-1-(oxetan-2-ylmethyl)-1H-benzo[d]imidazole-6-carboxylic acid], not above 150 nM; to `O=C(O)c1ccc2nc(CN3CC=C(c4cccc(OCc5ccc(F)cc5Cl)n4)CC3)n(C[C@@H]3CCO3)c2c1` [Compound 144, (S)-2-((6-((2-chloro-4-fluorobenzyl)oxy)-3′,6′-dihydro-[2,4′-bipyridin]-1′(2′H)-yl)methyl)-1-(oxetan-2-ylmethyl)-1H-benzo[d]imidazole-6-carboxylic acid], not above 15 nM.
Turning to `O=C(O)c1ccc2nc(CN3CC=C(c4cccc(OCc5ccc(-n6ccnn6)cc5)n4)CC3)n(C[C@@H]3CCO3)c2c1` [Compound 244, (S)-2-((6-((4-(1H-1,2,3-triazol-1-yl)benzyl)oxy)-3′,6′-dihydro-[2,4′-bipyridin]-1′(2′H)-yl)methyl)-1-(oxetan-2-ylmethyl)-1H-benzo[d]imidazole-6-carboxylic add], the EC50 was not above 15 nM.
Consider `N#Cc1ccc(COc2ccc(F)c(N3CCN(Cc4nc5ccc(C(=O)O)cc5n4C[C@@H]4CCO4)CC3)c2)c(F)c1` [Compound 197, (S)-2-((4-(5-((4-cyano-2-fluorobenzyl)oxy)-2-fluorophenyl)piperazin-1-yl)methyl)-1-(oxetan-2-ylmethyl)-1H-benzo[d]imidazole-6-carboxylic add], for which the EC50 is not above 1000 nM.

Source of the values: patent publication US10844049B2, “GLP-1R agonists and uses thereof” (QILU REGOR THERAPEUTICS INC., priority 2018, dated 2020).
